Reference: ChEMBL document CHEMBL4382286, “Nongenotoxic 3-Nitroimidazo[1,2-a]pyridines Are NTR1 Substrates That Display Potent in Vitro Antileishmanial Activity” (ACS Med Chem Lett, 2019)

Experiments:
Leishmania infantum = experiment: Antileishmanial activity against Leishmania infantum axenic amastigotes after 48 hrs by steady-glo luciferase reporter gene assay; type: functional, organism-based
[1] = Selectivity index, ratio of CC50 for human HepG2 cells to IC50 for promastigote stage of Leishmania donovani MHOM/IN/00/DEVI; type: toxicity; conditions: read-out: Ratio CC50/IC50
Leishmania major [2] = experiment: Antileishmanial activity against promastigote stage of Leishmania major MHOM/IL/81/Friedlin after 72 hrs by MTT assay; type: functional, organism-based
Leishmania major [3] = experiment: Antileishmanial activity against intracellular amastigote stage of Leishmania major infected in human THP1 cells after 120 hrs by giemsa staining based microscopic analysis; type: functional, organism-based; conditions: THP-1, 120 h
Leishmania donovani [4] = experiment: Antileishmanial activity against promastigote stage of Leishmania donovani MHOM/IN/00/DEVI after 72 hrs by MTT assay; type: functional, organism-based
[5] = Cytotoxicity against human HepG2 cells after 72 hrs by MTT assay; type: cell-based
Leishmania donovani [6] = experiment: Antileishmanial activity against intracellular amastigote stage of Leishmania donovani infected in human THP1 cells after 120 hrs by giemsa staining based microscopic analysis; type: functional, organism-based; conditions: THP-1, 120 h
Trichomonas vaginalis = experiment: Antiprotozoal activity against Trichomonas vaginalis TVR87 measured after 48 hrs by trypan blue assay; type: functional, organism-based
[7] = Solubility of the compound in RPMI medium at 4 to 6 uM; type: physicochemical
[8] = Cytotoxicity against human THP1 cells after 72 hrs by MTT assay; type: cell-based; conditions: THP-1 cells
[9] = Solubility of the compound in RPMI medium at >62.5 uM; type: physicochemical
Trypanosoma cruzi = experiment: Antitrypanosomal activity against Trypanosoma cruzi MHOM/BR/78/Silvio cloneX10/7A epimastigotes measured after 4 days by resazurin dye based fluorescence assay; type: functional, organism-based; conditions: 96 h
[10] = test system: Trypanosoma brucei brucei; experiment: Antitrypanosomal activity against trypomastigote stage of Trypanosoma brucei brucei AnTat 1.9 assessed as decrease in parasite viability after 69 hrs by Alamar Blue assay; type: functional, organism-based; conditions: AnTat 1.9, 69 h
[11] = Aqueous solubility of the compound at >62.5 uM; type: physicochemical; conditions: buffer

Row | Structure (SMILES) | selectivity ratio [1] | IC50 (Leishmania donovani [4]) | CC50 at 72 h [5] | other results
1 | O=[N+]([O-])c1c(CS(=O)(=O)c2ccccc2)nc2c(Sc3ccc(Br)cc3)cc(Cl)cn12 | > 62.5 | 1 µM | > 62.5 µM | IC50 (Leishmania infantum): 9 µM; IC50 (Leishmania major [2]): 1.3 µM; IC50 (Leishmania major [3]): 5 µM; IC50 (Leishmania donovani [6]): 3.5 µM; IC50 (Trichomonas vaginalis): 4.6 to 5 µM; solubility [7]: Soluble; CC50 at 72 h [8]: > 62.5 µM; solubility [9]: Insoluble; IC50 (Trypanosoma cruzi): 6.2 µM; IC50 [10]: 3.8 µM
2 | Cc1ccccc1Sc1cc(Cl)cn2c([N+](=O)[O-])c(CS(=O)(=O)c3ccccc3)nc12 | > 1.5 | 1.7 µM | > 3.9 µM | –
3 | O=[N+]([O-])c1c(CS(=O)(=O)c2ccccc2)nc2c(Sc3cccc(Cl)c3)cc(Cl)cn12 | > 3.6 | 0.7 µM | > 3.9 µM | –
4 | CSc1ccc(OCc2ncc([N+](=O)[O-])n2C)cc1 [FEXINIDAZOLE] | – | – | > 200 µM | IC50 (Leishmania donovani [6]): > 50 µM; CC50 at 72 h [8]: > 62.5 µM; IC50 (Trypanosoma cruzi): 8.9 µM
5 | COc1ccccc1Sc1cc(Cl)cn2c([N+](=O)[O-])c(CS(=O)(=O)c3ccccc3)nc12 | > 21.7 | 2.3 µM | > 50 µM | –
6 | O=[N+]([O-])c1c(CS(=O)(=O)c2ccccc2)nc2c(Sc3cccc(C(F)(F)F)c3)cc(Cl)cn12 | > 2.4 | 1.3 µM | > 3.9 µM | –
7 | O=[N+]([O-])c1c(CS(=O)(=O)c2ccccc2)nc2c(Sc3cccc(Cl)c3Cl)cc(Cl)cn12 | > 12.5 | 2 µM | > 25 µM | solubility [7]: Insoluble
8 | CC(C)c1ccc(Sc2cc(Cl)cn3c([N+](=O)[O-])c(CS(=O)(=O)c4ccccc4)nc23)cc1 | > 15.6 | 1.6 µM | > 25 µM | solubility [7]: Insoluble
9 | O=[N+]([O-])c1c(CS(=O)(=O)c2ccccc2)nc2c(Sc3cccc(F)c3)cc(Cl)cn12 | > 2.1 | 1.2 µM | > 3.9 µM | –
10 | O=[N+]([O-])c1c(CS(=O)(=O)c2ccccc2)nc2c(SCc3ccccc3)cc(Cl)cn12 | – | – | – | solubility [7]: Insoluble
11 | O=[N+]([O-])c1c(CS(=O)(=O)c2ccccc2)nc2c(Sc3ccc(Cl)cc3Cl)cc(Cl)cn12 | > 2.2 | 1.7 µM | > 3.9 µM | –
12 | Nc1c(CS(=O)(=O)c2ccccc2)nc2c(Sc3ccc(Cl)cc3)cc(Cl)cn12 | – | – | > 62.5 µM | IC50 (Leishmania infantum): 31.6 µM; solubility [11]: Insoluble; IC50 (Leishmania donovani [6]): 124 µM; IC50 [10]: 10.6 µM
13 | O=[N+]([O-])c1c(CS(=O)(=O)c2ccccc2)nc2c(Sc3ccccc3)cc(Cl)cn12 | > 2.3 | 1.7 µM | > 3.9 µM | –
14 | O=[N+]([O-])c1c(CS(=O)(=O)c2ccccc2)nc2c(Sc3ccccc3F)cc(Cl)cn12 | > 4.2 | 1.2 µM | > 5 µM | –
15 | Cc1ncc([N+](=O)[O-])n1CCO [METRONIDAZOLE] | – | – | – | IC50 (Trichomonas vaginalis): 4.2 µM
16 | O=C(Cn1ccnc1[N+](=O)[O-])NCc1ccccc1 [BENZNIDAZOLE] | – | – | – | IC50 (Trypanosoma cruzi): 1.2 µM
17 | CC1CS(=O)(=O)CCN1/N=C/c1ccc([N+](=O)[O-])o1 (stereo unspecified) [NIFURTIMOX] | – | – | – | IC50 (Trypanosoma cruzi): 0.3 µM
18 | O=[N+]([O-])c1c(CS(=O)(=O)c2ccccc2)nc2c(Sc3ccc(F)cc3)cc(Cl)cn12 | > 3.8 | 1.3 µM | > 5 µM | –
